{"source": "patent US20190380346A1", "about": "“METHOD OF IMPROVING HEALTH AND ROOTING OF HARDWOOD TREES” (Bayer CropScience LP, priority 2018, published 2019)", "key": {"hardwood trees [1]": {"test_system": "hardwood trees", "test": "Growth Response for Post-Plant Treatments (Example 8), summary over treated species", "assay_type": "in vivo", "conditions": "post-plant (Table 8); all treated species except for Chinese chestnut", "description": "(§1) Hybrid poplar seedlings were planted as stem cuttings.\n(§2) Stem volume index is calculated as D^2H where D=groundline stem diameter and H=total height."}, "hardwood trees [2]": {"test_system": "hardwood trees", "test": "Growth Response for Pre-Plant Treatments (Example 7), summary over treated species", "assay_type": "in vivo", "conditions": "pre-plant (Table 7); all treated species, with the exceptions of chestnut oak and Chinese chestnut", "description": "as §1, §2"}}, "data": [{"smiles": "Cc1ccc2c(c1)[C@H](Nc1nc(N)nc(C(C)F)n1)[C@@H](C)C2", "note": "(mixture of isomers) [indaziflam, N2-[(1R,2S)-2,3-dihydro-2,6-dimethyl-1H-inden-1-yl]-6-[(1RS)-1-fluoroethyl]-1,3,5-triazine-2,4-diamine]", "values": [{"measurement": "growth response", "setting": "hardwood trees [1]", "result": "positive growth response"}, {"measurement": "growth response", "setting": "hardwood trees [2]", "result": "positive growth response"}]}]}
